Data reported in publication PMC11990301, “Lipidated DAPEG Polymers as a Non-Toxic Transfection Agent—Influence of Fatty Acid Side Chain on Transfection Efficacy” (Molecules, 2025).

Key:
[1] = Dynamic light scattering (DLS) particle size of compounds and compound-pmaxGFP complexes; format: physicochemical; conditions: 25 °C, n = 3; for hydrodynamic diameters, pMAXGFP (-) / PDI (polydispersity index), pMAXGFP (-): compound alone without plasmid, in water; for hydrodynamic diameters, pMAXGFP (-): 2.5 mg/mL as printed, 10 s runs, Litesizer DIA 500, mean ± SD; for PDI (polydispersity index), pMAXGFP (-) / PDI (polydispersity index), pMAXGFP (+) / hydrodynamic diameters, pMAXGFP (+): mean ± SD; for PDI (polydispersity index), pMAXGFP (+) / hydrodynamic diameters, pMAXGFP (+): compound-DNA plasmid complex, N/P 1.5/1, in water
Method: Dynamic light scattering (DLS) measurements were performed using the Litesizer DIA 500 (Anton Par, Ostfildern-Scharnhausen, Germany). The concentration of the compounds in water was 2.5 mg/mL, with the inclusion of a DNA plasmid to maintain a charge-to-ratio of 1.5/1 N/P. For system 1:1.5, the concentration of each compound was 0.61 µM; for 3:1–1.21 µM; for 9:1–3.64 µM. The DNA plasmid concentration remains constant and equal at 0.46 nM. The particle size series mode was used in a cuvette with a volume of […]. Each run was recorded at 25 °C for 10 s.

[2] = tested on: spheroids of HEK-293T cells; assay: Viability in 3D model, CellTiter Glo 3D (ATP); format: cell-based; conditions: HEK-293T spheroids, 24 h incubation, tested 0, 1, 2, 5, 10, 20 and 50 µM, CellTiter Glo 3D luminescence; n = 3
Method: (§1) The HEK-293T cell line was cultured using both 2D and 3D techniques. The non-adherent method of forming spheroids was used. Cells (750 cells per well) were seeded in a 96-well U-shaped plate BIOFLOAT (Sarstedt, Nümbrecht, Germany). The HEK-293T cells were cultured at 37 °C in 5% CO2 in Dulbecco’s modified Eagle medium (DMEM; high glucose) supplemented with 10% fetal bovine serum (FBS) and 1% penicillin–streptomycin solution containing 100 units of penicillin and 100 µg/mL of streptomycin. After three days of culturing, the spheroids were formed and ready for further experiments.
After culturing for 72 h, spheroids of HEK-293T cells were incubated with increasing amounts of the appropriate compounds (0, 1, 2, 5, 10, 20, and 50 µM) in the medium described above at 37 °C with 5% CO2. After 24 h, the plate was incubated at room temperature (RT) for 30 min, followed by the addition of 100 μL of CellTiter Glo 3D Cell Viability Assay reagent (Promega, Fitchburg, WI, USA). The plate was then covered from light and shaken for 30 min. Next, the contents of each well were transferred to a white flat bottom plate (Nunc A/S, Thermo Fisher, Odense, Denmark) and luminescence was read at 560 nm using the CLARIOstar (BMG Labtech, Ortenberg, Germany).

[3] = tested on: HEK-293T cell line (spheroids); assay: Transfection efficacy of GFP plasmid (pmaxGFP) in 3D model; format: cell-based; conditions: HEK-293T spheroids
Method: as §1
Cells were cultured for 72 h under the conditions described above. Mixtures of the selected compounds and pmaxGFP plasmid in N/P ratios (charge peptidomimetic/charge pmaxGFP) of 1.5, 3:1, and 9:1 were incubated for 30 min and used immediately. An appropriate control with plasmid was employed. To each well with spheroids, 10 µL of the mixture described above was added in triplicate up to 90 µL of the full medium. The plate was then incubated at 37 °C with 5% CO2 for 5 h, washed (3 × medium), and cultured for another 72 h. After this process, the cells were inspected under a fluorescent microscope (Olympus IX51 fluorescence microscope (Olympus, Tokyo, Japan)). The molar concentration of particular components was equal to, for system 1:1.5, the concentration of each compound at 0.61 µM; for 3:1–1.21 µM; for 9:1–3.64 µM. The DNA plasmid concentration remains constant and equal at 0.46 nM.

[4] = Complex stability assessment by UV spectra (Nanodrop); format: physicochemical; conditions: Nanodrop UV-Vis, time points 0, 0.5, 1, 2.5 and 5 h, transfection buffer and concentrations (Figure S2)
Method: The analysis of all obtained complexes was conducted using a Nanodrop 2000c UV-Vis spectrophotometer (Thermo Scientific, Waltham, MA, USA) at designated time points from 0 to 5 h (0, 0.5, 1, 2.5, and 5). The concentration of the individual components (DNA and the compound) was used as a reference. The concentration of the complexes remained constant in relation to the transfection experiments.

Row | hydrodynamic diameters, pMAXGFP (-) [1] | PDI (polydispersity index), pMAXGFP (-) [1] | PDI (polydispersity index), pMAXGFP (+) [1] | hydrodynamic diameters, pMAXGFP (+) [1] | Substance | concentration up to which viability is not suppressed compared to non-treated cells (3D spheroids, ATP) [2] | average fluorescence of spheroids (GFP production), N/P ratio 1.5:1 ([3]; compound 0.61 µM, plasmid 0.46 nM, 5 h incubation then 72 h culture, mean, n = 3) [arbitrary units] | average fluorescence of spheroids (GFP production), N/P ratio 3:1 ([3]; compound 1.21 µM, plasmid 0.46 nM, 5 h incubation then 72 h culture, mean, n = 3) | transfection efficacy ranking (GFP fluorescence), N/P ratio 9:1 ([3]; compound 3.64 µM, plasmid 0.46 nM, 5 h incubation then 72 h culture) | stability of compound and compound-DNA complex: change of UV spectra over time [4] | transfection efficacy ranking (GFP fluorescence), N/P ratio 1.5:1 ([3]; compound 0.61 µM, plasmid 0.46 nM, 5 h incubation then 72 h culture) | transfection efficacy ranking across all N/P series (1.5:1, 3:1, 9:1) ([3]; pmaxGFP)
1 | 309,0 ± 56,2 nm | 25,5 ± 2,9% | 30,1 ± 1,7% | 5580,7 ± 321,2 nm | C2H3O-O2Oc-[Dap(GO2)]8-O2Oc-NH2 [compound 1] | up to 5 µM | ~150 | around 200 arbitrary units | superior fluorescence |  |  | 
2 | 337,2 ± 28,6 nm | 27,8 ± 1,5% | 30,6 ± 2,5% | 4761,0 ± 190,1 nm | C4H7O-O2Oc-[Dap(GO2)]8-O2Oc-NH2 [compound 2] |  |  |  |  |  |  | 
3 | 599,5 ± 80,8 nm | 23,5 ± 2,4% | 30,7 ± 2,6% | 3006,0 ± 133,9 nm | C6H11O-O2Oc-[Dap(GO2)]8-O2Oc-NH2 [compound 3] |  |  |  |  |  |  | 
4 | 240,6 ± 36,9 nm | 24,9 ± 2,2% | 34,3 ± 4,2% | 4605,7 ± 90,9 nm | C10H19O-O2Oc-[Dap(GO2)]8-O2Oc-NH2 [compound 5] |  |  |  |  |  |  | 
5 | 337,4 ± 17,7 nm | 23,2 ± 2,8% | 24,2 ± 1,6% | 283,7 ± 5,9 nm | C12H23O-O2Oc-[Dap(GO2)]8-O2Oc-NH2 [compound 6] |  |  |  |  |  |  | 
6 | 373,5 ± 59,7 nm | 25,6 ± 3,2% | 21,2 ± 2,4% | 135,0 ± 3,2 nm | C14H27O-O2Oc-[Dap(GO2)]8-O2Oc-NH2 [compound 7] |  |  |  |  |  |  | 
7 | 517,6 ± 63,3 nm | 24,8 ± 1,9% | 26,3 ± 2,9% | 308,7 ± 22,7 nm | C16H31O-O2Oc-[Dap(GO2)]8-O2Oc-NH2 [compound 8] |  |  |  |  |  | greatest fluorescence | 
8 | 329,1 ± 39,3 nm | 18,3 ± 1,5% | 29,9 ± 2,8% | 2235,3 ± 48,0 nm | H-O2Oc-[Dap(GO2)]8-O2Oc-NH2 [1a, reference compound] |  |  |  |  |  |  | lowest in each series

Row | Substance | hydrodynamic diameters, pMAXGFP (-) [1] | PDI (polydispersity index), pMAXGFP (-) [1] | PDI (polydispersity index), pMAXGFP (+) [1] | hydrodynamic diameters, pMAXGFP (+) [1] | concentration up to which viability is not suppressed compared to non-treated cells (3D spheroids, ATP) [2] | average fluorescence of spheroids (GFP production), N/P ratio 1.5:1 ([3]; compound 0.61 µM, plasmid 0.46 nM, 5 h incubation then 72 h culture, mean, n = 3) [arbitrary units] | average fluorescence of spheroids (GFP production), N/P ratio 3:1 ([3]; compound 1.21 µM, plasmid 0.46 nM, 5 h incubation then 72 h culture, mean, n = 3) | transfection efficacy ranking (GFP fluorescence), N/P ratio 9:1 ([3]; compound 3.64 µM, plasmid 0.46 nM, 5 h incubation then 72 h culture) | stability of compound and compound-DNA complex: change of UV spectra over time [4] | transfection efficacy ranking (GFP fluorescence), N/P ratio 1.5:1 ([3]; compound 0.61 µM, plasmid 0.46 nM, 5 h incubation then 72 h culture) | transfection efficacy ranking across all N/P series (1.5:1, 3:1, 9:1) ([3]; pmaxGFP)
9 | C8H15O-O2Oc-[Dap(GO2)]8-O2Oc-NH2 [compound 4] | 508,9 ± 62,2 nm | 24,4 ± 2,3% | 29,4 ± 2,5% | 3446,7 ± 208,5 nm |  |  |  |  | do not show significant changes over time |  | 
